Results from PMC7956564, “Porphyromonas gingivalis HmuY and Bacteroides vulgatus Bvu—A Novel Competitive Heme Acquisition Strategy” (International Journal of Molecular Sciences, 2021).

Molecular target: T1, Bvu (Phocaeicola vulgatus, UniProt A6L2D9)
T1 construct: gene BVU_2192
Test: biochemical

T1 sequence (A6L2D9 entry or part of it): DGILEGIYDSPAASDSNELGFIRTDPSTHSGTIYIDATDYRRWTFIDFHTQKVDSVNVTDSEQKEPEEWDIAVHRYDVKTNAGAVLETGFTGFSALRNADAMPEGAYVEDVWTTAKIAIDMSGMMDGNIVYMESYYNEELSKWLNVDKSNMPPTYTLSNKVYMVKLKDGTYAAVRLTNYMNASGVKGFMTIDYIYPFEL

SMILES: C=CC1=C(C)C2=Cc3c(C=C)c(C)c4[n]3[Fe][n]3c(c(C)c(CCC(=O)O)c3=CC3=NC(=C4)C(C)=C3CCC(=O)O)=CC1=N2 [Fe(II)heme]
- Kd: 1.6 nM
